IC50 data for 21 compounds are collected here from US11358952B2, “Substituted 4-aminoisoindoline-1,3-dione compounds, compositions thereof, and methods of treatment therewith” (Celgene Corporation, priority 2018, dated 2022).

This experiment has as its system SU-DHL-4 cell line. Description: SU-DHL-4 cell proliferation assay (Cell Titer-Glo viability). Format: cell-based. The note with it: Homo sapiens; cell viability IC50 activity level, DLBCL cell line SU-DHL-4, 120 hours post-treatment; read-out: SU-DHL-4 Act. The procedure, abridged: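 SU-DHL-4 cells (500/well, RPMI-1640 + 10% FBS) exposed to 20-point compound dilutions (0.5 nM–10 μM, 0.1% DMSO) for 120 h at 37°C, 5% CO2. Viability measured by Cell Titer-Glo luminescence at t0 and at 120 h. IC50 is the concentration giving 50% of DMSO control, from a four-parameter logistic fit.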
(In general: In ATP-based viability assays light output follows the ATP content of the culture.)
Take `CC(C)S(=O)(=O)N1CCN(Cc2ccc(CNc3cccc4c3C(=O)N(C3CCC(=O)NC3=O)C4=O)c(F)c2)CC1` (stereo not drawn) [Cpd 175, 2-(2,6-dioxopiperidin-3-yl)-4-(2-fluoro-4-((4-(isopropylsulfonyl)piperazin-1-yl)methyl)benzylamino)isoindoline-1,3-dione]: the IC50 is less than 200 nM.
The same measure for `O=C1CCC(N2C(=O)c3cccc(NCc4ccc(CN5CCN(c6noc7ccccc67)CC5)cc4F)c3C2=O)C(=O)N1` (stereo not drawn) [Cpd 176, 4-(4-((4-(benzo[d]isoxazol-3-yl)piperazin-1-yl)methyl)-2-fluorobenzylamino)-2-(2,6-dioxopiperidin-3-yl)isoindoline-1,3-dione]: less than 200 nM; for `O=C1CCC(N2C(=O)c3cccc(NCc4ccc(CN5CCN(c6nnc(C(F)(F)F)s6)CC5)cc4F)c3C2=O)C(=O)N1` (stereo not drawn) [Cpd 177, 2-(2,6-dioxopiperidin-3-yl)-4-(2-fluoro-4-((4-(5-(trifluoromethyl)-1,3,4-thiadiazol-2-yl)piperazin-1-yl)methyl)benzylamino)isoindoline-1,3-dione]: less than 200 nM.
Then `Cc1nnc(C2CCN(Cc3ccc(CNc4cccc5c4C(=O)N(C4CCC(=O)NC4=O)C5=O)c(F)c3)CC2)o1` (stereo not drawn) [Cpd 178, 2-(2,6-dioxopiperidin-3-yl)-4-(2-fluoro-4-((4-(5-methyl-1,3,4-oxadiazol-2-yl)piperidin-1-yl)methyl)benzylamino)isoindoline-1,3-dione], with 200 to 500 nM; and `Cc1cc(CNc2cccc3c2C(=O)N(C2CCC(=O)NC2=O)C3=O)ccc1CN1CCN(c2cccnc2C(N)=O)CC1` (stereo not drawn) [Cpd 179, 3-(4-(4-((2-(2,6-dioxopiperidin-3-yl)-1,3-dioxoisoindolin-4-ylamino)methyl)-2-methylbenzyl)piperazin-1-yl)picolinamide], with 751 to 1000 nM.
Then `NC(=O)c1ncccc1N1CCN(Cc2ccc(CNc3cccc4c3C(=O)N(C3CCC(=O)NC3=O)C4=O)c(F)c2)CC1` (stereo not drawn) [Cpd 180, 3-(4-(4-((2-(2,6-dioxopiperidin-3-yl)-1,3-dioxoisoindolin-4-ylamino)methyl)-3-fluorobenzyl)piperazin-1-yl)picolinamide], with 200 to 500 nM; and `NC(=O)c1cccc(N2CCN(Cc3ccc(CNc4cccc5c4C(=O)N(C4CCC(=O)NC4=O)C5=O)cc3)CC2)n1` (stereo not drawn) [Cpd 181, 6-(4-(4-((2-(2,6-dioxopiperidin-3-yl)-1,3-dioxoisoindolin-4-ylamino)methyl)benzyl)piperazin-1-yl)picolinamide], with less than 200 nM; and `Cc1cc(CNc2cccc3c2C(=O)N(C2CCC(=O)NC2=O)C3=O)ccc1CN1CCN(c2cccc(C(N)=O)n2)CC1` (stereo not drawn) [Cpd 182, 6-(4-(4-((2-(2,6-dioxopiperidin-3-yl)-1,3-dioxoisoindolin-4-ylamino)methyl)-2-methylbenzyl)piperazin-1-yl)picolinamide], with less than 200 nM.
`NC(=O)c1cccc(N2CCN(Cc3ccc(CNc4cccc5c4C(=O)N(C4CCC(=O)NC4=O)C5=O)cc3F)CC2)n1` (stereo not drawn) [Cpd 183, 6-(4-(4-((2-(2,6-dioxopiperidin-3-yl)-1,3-dioxoisoindolin-4-ylamino)methyl)-2-fluorobenzyl)piperazin-1-yl)picolinamide]: the IC50 is less than 200 nM.
Then `NC(=O)c1cccc(N2CCN(Cc3ccc(CNc4cccc5c4C(=O)N(C4CCC(=O)NC4=O)C5=O)c(F)c3)CC2)n1` (stereo not drawn) [Cpd 184, 6-(4-(4-((2-(2,6-dioxopiperidin-3-yl)-1,3-dioxoisoindolin-4-ylamino)methyl)-3-fluorobenzyl)piperazin-1-yl)picolinamide], with less than 200 nM; and `O=C1CCC(N2C(=O)c3cccc(NCc4ccc(CN5CCN(c6cnccn6)CC5)cc4)c3C2=O)C(=O)N1` (stereo not drawn) [Cpd 185, 2-(2,6-dioxopiperidin-3-yl)-4-(4-((4-(pyrazin-2-yl)piperazin-1-yl)methyl)benzylamino)isoindoline-1,3-dione], with 200 to 500 nM.
The same measure for `Cc1cncc(N2CCN(Cc3ccc(CNc4cccc5c4C(=O)N(C4CCC(=O)NC4=O)C5=O)cc3)CC2)n1` (stereo not drawn) [Cpd 186, 2-(2,6-dioxopiperidin-3-yl)-4-(4-((4-(6-methylpyrazin-2-yl)piperazin-1-yl)methyl)benzylamino)isoindoline-1,3-dione]: 751 to 1000 nM.
Turning to `O=C1CCC(N2C(=O)c3cccc(NCc4ccc(CN5CCN(c6noc7ccccc67)CC5)cc4)c3C2=O)C(=O)N1` (stereo not drawn) [Cpd 187, 4-(4-((4-(benzo[d]isoxazol-3-yl)piperazin-1-yl)methyl)benzylamino)-2-(2,6-dioxopiperidin-3-yl)isoindoline-1,3-dione], the IC50 was 200 to 500 nM.
Then `O=C1CCC(N2C(=O)c3cccc(NCc4ccc(CN5CCN(C(=O)c6ccccc6F)CC5)cc4F)c3C2=O)C(=O)N1` (stereo not drawn) [Cpd 188, 2-(2,6-dioxopiperidin-3-yl)-4-(2-fluoro-4-((4-(2-fluorobenzoyl)piperazin-1-yl)methyl)benzylamino)isoindoline-1,3-dione], with 751 to 1000 nM; and `NC(=O)c1cc(N2CCN(Cc3ccc(CNc4cccc5c4C(=O)N(C4CCC(=O)NC4=O)C5=O)cc3)CC2)ccn1` (stereo not drawn) [Cpd 189, 4-(4-(4-((2-(2,6-dioxopiperidin-3-yl)-1,3-dioxoisoindolin-4-ylamino)methyl)benzyl)piperazin-1-yl)picolinamide], with 200 to 500 nM; and `Cc1cc(CNc2cccc3c2C(=O)N(C2CCC(=O)NC2=O)C3=O)ccc1CN1CCN(c2ccnc(C(N)=O)c2)CC1` (stereo not drawn) [Cpd 190, 4-(4-(4-((2-(2,6-dioxopiperidin-3-yl)-1,3-dioxoisoindolin-4-ylamino)methyl)-2-methylbenzyl)piperazin-1-yl)picolinamide], with 200 to 500 nM.
Then `NC(=O)c1cc(N2CCN(Cc3ccc(CNc4cccc5c4C(=O)N(C4CCC(=O)NC4=O)C5=O)cc3F)CC2)ccn1` (stereo not drawn) [Cpd 191, 4-(4-(4-((2-(2,6-dioxopiperidin-3-yl)-1,3-dioxoisoindolin-4-ylamino)methyl)-2-fluorobenzyl)piperazin-1-yl)picolinamide], with 501 to 750 nM.
Then `NC(=O)c1cc(N2CCN(Cc3ccc(CNc4cccc5c4C(=O)N(C4CCC(=O)NC4=O)C5=O)c(F)c3)CC2)ccn1` (stereo not drawn) [Cpd 192, 4-(4-(4-((2-(2,6-dioxopiperidin-3-yl)-1,3-dioxoisoindolin-4-ylamino)methyl)-3-fluorobenzyl)piperazin-1-yl)picolinamide], with less than 200 nM.
Consider `Cc1nnc(N2CCN(Cc3ccc(CNc4cccc5c4C(=O)N(C4CCC(=O)NC4=O)C5=O)cc3)CC2)s1` (stereo not drawn) [Cpd 193, 2-(2,6-dioxopiperidin-3-yl)-4-(4-((4-(5-methyl-1,3,4-thiadiazol-2-yl)piperazin-1-yl)methyl)benzylamino)isoindoline-1,3-dione], for which the IC50 lay within 200 to 500 nM.
Then `Cc1nsc(N2CCN(Cc3ccc(CNc4cccc5c4C(=O)N(C4CCC(=O)NC4=O)C5=O)cc3)CC2)n1` (stereo not drawn) [Cpd 194, 2-(2,6-dioxopiperidin-3-yl)-4-(4-((4-(3-methyl-1,2,4-thiadiazol-5-yl)piperazin-1-yl)methyl)benzylamino)isoindoline-1,3-dione], with less than 200 nM; and `Cn1cc(N2CCN(Cc3ccc(CNc4cccc5c4C(=O)N(C4CCC(=O)NC4=O)C5=O)cc3)CC2)cn1` (stereo not drawn) [Cpd 195, 2-(2,6-dioxopiperidin-3-yl)-4-(4-((4-(1-methyl-1H-pyrazol-4-yl)piperazin-1-yl)methyl)benzylamino)isoindoline-1,3-dione], with 200 to 500 nM.
